Results: patent US9593084B2 (Parion Sciences, Inc., priority 2012, dated 2017)
Marks after values point to notes of the source that are not given here.

Columns and labels:
[1] = molecular target: T1, epithelial sodium channel (Canis lupus familiaris, UniProt A0A8I3MKE6+A0A8I3Q679+Q95165); assay: Inhibition of short-circuit current (ISC) in airway epithelial monolayers in Ussing chambers; format: cell-based, canine; details: canine bronchial epithelial cells, short-circuit current; read-out: Potency of Sodium Channel Blockade IC50
T1 construct: endogenous in cells; host or cells: primary canine bronchial epithelial cells cultured at air-liquid interface
T1 sequence (A0A8I3Q679 1-649): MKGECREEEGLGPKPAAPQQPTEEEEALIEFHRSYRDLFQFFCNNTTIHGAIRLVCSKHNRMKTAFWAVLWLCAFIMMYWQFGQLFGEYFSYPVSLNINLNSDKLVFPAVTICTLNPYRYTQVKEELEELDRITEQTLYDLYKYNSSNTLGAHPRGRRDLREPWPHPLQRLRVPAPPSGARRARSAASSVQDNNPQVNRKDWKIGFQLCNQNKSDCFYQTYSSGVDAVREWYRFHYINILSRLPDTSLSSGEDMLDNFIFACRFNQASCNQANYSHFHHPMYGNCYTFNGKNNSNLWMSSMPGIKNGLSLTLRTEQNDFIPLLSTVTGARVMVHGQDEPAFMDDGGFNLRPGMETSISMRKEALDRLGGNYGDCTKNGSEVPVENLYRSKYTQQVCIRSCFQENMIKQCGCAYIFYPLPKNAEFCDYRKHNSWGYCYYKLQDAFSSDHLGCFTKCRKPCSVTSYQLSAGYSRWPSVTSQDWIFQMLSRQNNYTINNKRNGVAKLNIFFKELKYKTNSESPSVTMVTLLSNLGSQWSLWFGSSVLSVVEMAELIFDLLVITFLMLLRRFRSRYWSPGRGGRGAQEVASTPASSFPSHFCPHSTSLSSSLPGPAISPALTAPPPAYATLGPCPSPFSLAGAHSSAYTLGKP
T1 sequence (Q95165 1-641): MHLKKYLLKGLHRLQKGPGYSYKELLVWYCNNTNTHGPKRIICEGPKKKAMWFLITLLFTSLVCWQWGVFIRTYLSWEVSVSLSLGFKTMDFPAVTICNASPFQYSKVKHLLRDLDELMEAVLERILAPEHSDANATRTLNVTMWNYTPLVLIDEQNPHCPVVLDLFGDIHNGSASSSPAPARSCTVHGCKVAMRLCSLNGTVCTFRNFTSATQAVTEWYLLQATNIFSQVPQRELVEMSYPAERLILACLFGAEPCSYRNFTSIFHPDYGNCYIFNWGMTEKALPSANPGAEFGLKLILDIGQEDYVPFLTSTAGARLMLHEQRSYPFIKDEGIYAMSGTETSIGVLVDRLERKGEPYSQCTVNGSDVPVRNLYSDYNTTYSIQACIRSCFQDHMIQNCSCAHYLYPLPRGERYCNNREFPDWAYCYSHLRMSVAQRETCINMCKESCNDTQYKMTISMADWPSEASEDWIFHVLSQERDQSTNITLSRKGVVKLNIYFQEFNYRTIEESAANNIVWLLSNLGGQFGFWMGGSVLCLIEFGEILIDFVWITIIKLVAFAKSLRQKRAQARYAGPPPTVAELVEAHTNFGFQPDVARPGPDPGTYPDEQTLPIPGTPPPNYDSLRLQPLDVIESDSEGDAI
T1 sequence (A0A8I3MKE6 1-646): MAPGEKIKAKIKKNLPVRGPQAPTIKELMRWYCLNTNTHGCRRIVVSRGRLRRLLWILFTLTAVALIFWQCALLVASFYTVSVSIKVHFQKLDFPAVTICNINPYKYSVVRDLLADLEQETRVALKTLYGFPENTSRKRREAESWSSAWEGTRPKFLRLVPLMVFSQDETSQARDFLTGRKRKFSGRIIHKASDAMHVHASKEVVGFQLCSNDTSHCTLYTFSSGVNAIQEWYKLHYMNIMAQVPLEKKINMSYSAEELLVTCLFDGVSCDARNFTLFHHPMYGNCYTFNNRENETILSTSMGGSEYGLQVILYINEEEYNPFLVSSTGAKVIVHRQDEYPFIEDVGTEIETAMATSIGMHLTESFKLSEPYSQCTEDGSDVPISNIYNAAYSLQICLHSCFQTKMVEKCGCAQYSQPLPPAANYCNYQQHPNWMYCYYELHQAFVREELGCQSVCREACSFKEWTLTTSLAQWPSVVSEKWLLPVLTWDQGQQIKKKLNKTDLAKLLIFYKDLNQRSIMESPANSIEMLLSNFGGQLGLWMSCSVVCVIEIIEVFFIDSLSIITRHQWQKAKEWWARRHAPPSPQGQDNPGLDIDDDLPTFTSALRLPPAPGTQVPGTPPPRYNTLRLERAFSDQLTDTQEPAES
Description: One assay used to assess mechanism of action and/or potency of the compounds of the present invention involves the determination of lumenal drug inhibition of airway epithelial sodium currents measured under short circuit current (ISC) using airway epithelial monolayers mounted in Using chambers. Cells obtained from freshly excised human, dog, sheep or rodent airways are seeded onto porous 0.4 micron Snapwelff Inserts (CoStar), cultured at air-liquid interface (ALI) conditions in hormonally defined media, and assayed for sodium transport activity (ISC) while bathed in Krebs Bicarbonate Ringer (KBR) in Using chambers. All test drug additions are to the lumenal bath with half-log dose addition protocols (from 1×10^−11 M to 3×10^−5 M), and the cumulative change in ISC (inhibition) recorded. All drugs are prepared in dimethyl sulfoxide as stock solutions at a concentration of 1×10^−2 M and stored at −20° C. […] After the maximal concentration ([…]) is administered, the lumenal bath is exchanged three times with fresh drug-free KBR solution, and the resultant ISC measured after each wash for approximately 5 minutes in duration. Reversibility is defined as the percent return to the baseline value for sodium current after the third wash. All data from the voltage clamps are collected via a computer interface and analyzed off-line.
Dose-effect relationships for all compounds are considered and analyzed by the Prism 3.0 program.

Sheep MCC = assay: Mucociliary clearance (MCC) studies in sheep; format: in vivo; details: sheep, 0.24 nmol/kg (3 μM); for effect on MCC compared to vehicle: 4 h post-dose; for AUC (% Cl-h) / Initial Slope (4.0-4.5 h): aerosol, MCC at 4 h post-dose
Description: The animal model that has been used most often to measure changes in MCC is the sheep model. The effect of compounds for enhancing mucociliary clearance (MCC) can be measured using an in vivo model described by Sabater et al., Journal of Applied Physiology, 1999, pp. 2191-2196, incorporated herein by reference.
In these studies, adult sheep were restrained and nasally intubated with an endotracheal tube. Aerosolized test articles were administered over 10-15 minutes to sheep. Radiolabeled ^99mTc-sulfur colloid (TSC, 3.1 mg/mL; containing approximately 20 mCi) was then administered at a specified time four or eight hours after test article. The radiolabeled aerosol was administered through the endotracheal tube for about 5 minutes. The sheep were then extubated, and total radioactive counts in the lung were measured every 5 minutes for a 1-hour observation period. The rate of radiolabel clearance from the lung is representative of the MCC rate in the animal. The advantage of this system is that it closely simulates the human lung environment. The model also allows for the collection of simultaneous PK/PD information through plasma and urine sampling over the test period. There are also several techniques to measure the drug concentrations on the airway surface during the MCC measurements. These include the collection of exhaled breath condensates or a filter paper method to obtain ASL via bronchoscopy.
The ovine model described above was used to evaluate the in vivo effects (efficacy/durability) of aerosol-delivered test agent on MCC. Treatments consisting of either 4 mL of test agent or test agent in combination with HS were tested. To determine if combining HS with test agent enhanced MCC, HS was administered immediately following test agent administration. Test solutions were aerosolized using a Raindrop nebulizer at a flowrate of eight liters per minute and connected to a dosimetry system consisting of a solenoid valve and a source of compressed air (20 psi). The deposited dose of drug in sheep lungs after an aerosol administration using the Raindrop nebulizer is estimated to be 8-15% of the dose. Using a Raindrop nebulizer, radiolabeled TSC was administered over approximately 3 minutes either 4 or 8 hours after drug treatment to evaluate efficacy/durability. Radioactive counts were measured in a central region in the right lung at 5 min intervals for one hour with a gamma camera. Three methods of analysis were utilized, 1) initial rate of clearance (slope) over the first 30 min fitted using linear regression 2) area under the curve for % clearance over time over one hour, and 3) the maximum clearance obtained in one hour.

| Compound | IC50 [1] | effect on MCC compared to vehicle (Sheep MCC) | AUC (% Cl-h) (Sheep MCC) | Initial Slope (4.0-4.5 h) (Sheep MCC) |
| --- | --- | --- | --- | --- |
| N=C(NCCCCc1ccc(C[C@H](N)C(=O)O)c2ccccc12)NC(=O)c1nc(Cl)c(N)nc1N [Compound 16, (S)-2-amino-3-(4-(4-(3-(3,5-diamino-6-chloropyrazine-2-carbonyl)guanidino)butyl)naphthalen-1-yl)propanoic acid] | 79.6 nM | – | – | – |
| N=C(NCCCCc1ccc2cc(C[C@H](N)C(=O)Nc3ccc(CCCNC[C@H](O)[C@@H](O)[C@H](O)[C@H](O)CO)cc3)ccc2c1)NC(=O)c1nc(Cl)c(N)nc1N [Compound 99, 3,5-diamino-N—(N-(4-(6-((S)-2-amino-3-oxo-3-(4-(3-((2S,3R,4R,5R)-2,3,4,5,6-pentahydroxyhexylamino)propyl)phenylamino)propyl)naphthalen-2-yl)butyl)carbamimidoyl)-6-chloropyrazine-2-carboxamide] | 7.6 nM | – | – | – |
| CCCCCCN(CCCc1ccc(NC(=O)[C@@H](N)Cc2ccc(CCCCNC(=N)NC(=O)c3nc(Cl)c(N)nc3N)c3c2CCCC3)cc1)C[C@H](O)[C@@H](O)[C@H](O)[C@H](O)CO [Compound 123, 3,5-diamino-N—(N-(4-(4-((S)-2-amino-3-(4-(3-(hexyl((2S,3R,4R,5R)-2,3,4,5,6-pentahydroxyhexyl)amino)propyl)phenylamino)-3-oxopropyl)-5,6,7,8-tetrahydronaphthalen-1-yl)butyl)carbamimidoyl)-6-chloropyrazine-2-carboxamide] | 2.3 nM | Similarly Enhance MCC Compared to Vehicle | 14.4* (2) % Cl-h | 29.2* (2) |
| N=C(NCCCCc1ccc(C[C@H](N)C(=O)Nc2ccc(CCCCCCN(C[C@H](O)[C@@H](O)[C@H](O)[C@H](O)CO)C[C@H](O)[C@@H](O)[C@H](O)[C@H](O)CO)cc2)c2ccccc12)NC(=O)c1nc(Cl)c(N)nc1N [Compound 48, 3,5-diamino-N—(N-(4-(4-((S)-2-amino-3-(4-(6-(bis((2S,3R,4R,5R)-2,3,4,5,6-pentahydroxyhexyl)amino)hexyl)phenylamino)-3-oxopropyl)naphthalen-1-yl)butyl)carbamimidoyl)-6-chloropyrazine-2-carboxamide] | 47 nM | Similarly Enhance MCC Compared to Vehicle | 15.4* (2) % Cl-h | 29.8* (2) |
| CCCCCCN(CCCc1ccc(NC(=O)[C@@H](N)Cc2ccc(CCCCNC(=N)NC(=O)c3nc(Cl)c(N)nc3N)c3ccccc23)cc1)C[C@H](O)[C@@H](O)[C@H](O)[C@H](O)CO [Compound 28, 3,5-diamino-N—(N-(4-(4-((S)-2-amino-3-(4-(3-(hexyl((2S,3R,4R,5R)-2,3,4,5,6-pentahydroxyhexyl)amino)propyl)phenylamino)-3-oxopropyl)naphthalen-1-yl)butyl)carbamimidoyl)-6-chloropyrazine-2-carboxamide] | 7.4 nM | – | – | – |
| CN(C)CCCc1ccc(NC(=O)[C@@H](N)Cc2ccc(CCCCNC(=N)NC(=O)c3nc(Cl)c(N)nc3N)c3c2CCCC3)cc1 [Compound 135, (S)-3,5-diamino-N—(N-(4-(4-(2-amino-3-(4-(3-(dimethylamino)propyl)phenylamino)-3-oxopropyl)-5,6,7,8-tetrahydronaphthalen-1-yl)butyl)carbamimidoyl)-6-chloropyrazine-2-carboxamide] | 5.2 nM | – | – | – |
| N=C(NCCCCc1ccc2cc(C[C@H](N)C(=O)O)ccc2c1)NC(=O)c1nc(Cl)c(N)nc1N [Compound 80, (S)-2-amino-3-(6-(4-(3-(3,5-diamino-6-chloropyrazine-2-carbonyl)guanidino)butyl)naphthalen-2-yl)propanoic acid] | 19.4 nM | – | – | – |
| CCCCCCN(CCCCCCc1ccc(NC(=O)[C@@H](N)Cc2ccc(CCCCNC(=N)NC(=O)c3nc(Cl)c(N)nc3N)c3ccccc23)cc1)C[C@H](O)[C@@H](O)[C@H](O)[C@H](O)CO [Compound 58, 3,5-diamino-N—(N-(4-(4-((S)-2-amino-3-(4-(6-(hexyl((2S,3R,4R,5R)-2,3,4,5,6-pentahydroxyhexyl)amino)hexyl)phenylamino)-3-oxopropyl)naphthalen-1-yl)butyl)carbamimidoyl)-6-chloropyrazine-2-carboxamide] | 10.6 nM | – | – | – |
